Values of other authors, collected in patent US5252560A, “Cyclic imide derivatives, compositions and use” (Glaxo Inc., priority 1991, dated 1993).

Test system: arthritis in a collagen-induced model
Conditions: large doses; collagen-induced model in the mouse

In the case of “TIMP: the natural inhibitor of collagenase”, the severity of arthritis is listed as “decreases the severity of arthritis”.
